Laboratory results from US11485751B2, “Apramycin derivatives” (WAYNE STATE UNIVERSITY, priority 2017, dated 2022).
≈ marks a conversion by molar mass, not a printed value.

How the values were obtained:
[1] = test system: clinical isolates carrying AAC(3)-IV; assay: MIC broth microdilution, AAC(3)-IV; format: cell-based; settings: clinical isolates, IMM Univ. Zurich; AAC(3)-IV; read-out: MIC AAC(3)-IV
Summary of the method: (§1)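 MICs obtained by broth microdilution following CLSI M07-A10, tested against clinical isolates from the Institute of Medical Microbiology, Univ. Zurich; values in μg/ml.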

[2] = test system: clinical isolates carrying APH(3′)-I; assay: MIC broth microdilution, APH(3′)-I; format: cell-based; settings: IMM Univ. Zurich
[3] = test system: clinical isolates carrying APH(3′)-II; assay: MIC broth microdilution, APH(3′)-II; format: cell-based; settings: clinical isolates, IMM Univ. Zurich; APH(3′)-II; read-out: MIC APH(3′)-II
[4] = test system: clinical isolates carrying APH(3′)-III; assay: MIC broth microdilution, APH(3′)-III; format: cell-based; settings: IMM Univ. Zurich
[5] = test system: clinical isolates carrying APH(3′)-VI; assay: MIC broth microdilution, APH(3′)-VI; format: cell-based; settings: IMM Univ. Zurich
bacterial ribosomes = assay: in-vitro translation assay, bacterial ribosomes; format: biochemical
Summary of the method: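 Inhibitory potency was determined as IC50 in in-vitro translation systems based on bacterial ribosomes, human chimeric (mitochondrial-type) ribosomes or rabbit reticulocyte (cytosolic) ribosomes.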

[6] = test system: human mitochondrial ribosomes; assay: in-vitro translation assay, human mitochondrial (human chimeric) ribosomes; format: biochemical
Summary of the method: (§2)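 Each ribosome preparation (bacterial, human chimeric as the mitochondrial model, rabbit reticulocyte as the cytosolic model) drives in-vitro translation with the test compound present. Inhibition of translation gives the IC50.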

[7] = test system: human cytosolic ribosomes; assay: in-vitro translation assay, human cytosolic ribosomes; format: biochemical
Summary of the method: as §2

[8] = test system: AG212, Escherichia coli ATCC25922; assay: MIC reference strain AG212; format: cell-based; settings: Escherichia coli; reference strain ATCC25922; read-out: MIC AG212 E. coli
Summary of the method: (§3)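 MICs were determined by broth microdilution following CLSI guidelines for aerobically growing bacteria.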

[9] = test system: AG215, Klebsiella pneumonia; assay: MIC reference strain AG215; format: cell-based; settings: Klebsiella pneumoniae, reference strain; read-out: MIC AG215 K. pneumonia
Summary of the method: as §3

[10] = test system: AG290, Enterobacter cloacae; assay: MIC reference strain AG290; format: cell-based; settings: Enterobacter cloacae; reference strain; read-out: MIC AG290 E. cloacae
Summary of the method: as §3

[11] = test system: AG220, Pseudomonas aeruginosa ATCC27853; assay: MIC reference strain AG220; format: cell-based; settings: Pseudomonas aeruginosa, ATCC27853, reference strain ATCC27853; read-out: MIC AG220 P. aeruginosa
Summary of the method: as §3

[12] = test system: AG225, Acinetobacter baumannii pittii; assay: MIC reference strain AG225; format: cell-based; settings: Acinetobacter baumannii, reference strain; read-out: MIC AG225 A. baumannii
Summary of the method: as §3

AG001 E. coli WT = assay: Antibacterial activity, clinical isolate AG001; format: cell-based; set-up: unit not given here
Summary of the method: (§4)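 MIC values were determined by broth microdilution following the CLSI standard method for dilution susceptibility testing of aerobically growing bacteria.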

AG055 E. coli WT = assay: Antibacterial activity, clinical isolate AG055; format: cell-based; set-up: unit not given here
Summary of the method: as §4

AG003 E. coli AAC(3)-II = assay: Antibacterial activity, clinical isolate AG003; format: cell-based
Summary of the method: as §4

AG173 E. coli AAC(3)-IV = assay: Antibacterial activity, clinical isolate AG173; format: cell-based
Summary of the method: as §4

AG163 E. coli APH(3′)-I = assay: Antibacterial activity, clinical isolate AG163; format: cell-based
Summary of the method: as §4

AG038 MRSA = assay: Antibacterial activity, clinical isolate AG038; format: cell-based; set-up: unit not given here
Summary of the method: as §4

[13] = test system: AG039 MRSA AAC(6′)-I ANT(4′)-I; assay: Antibacterial activity, clinical isolate AG039; format: cell-based
Summary of the method: as §4

[14] = test system: AG042 MRSA AAC(6′)-I ANT(4′)-I APH(2′); assay: Antibacterial activity, clinical isolate AG042; format: cell-based; set-up: unit not given here
Summary of the method: as §4

AG031 P. aer. APH(3′)-II = assay: Antibacterial activity, clinical isolate AG031; format: cell-based; set-up: unit not given here
Summary of the method: as §4

AG032 P. aer. APH(3′)-II = assay: Antibacterial activity, clinical isolate AG032; format: cell-based; set-up: unit not given here
Summary of the method: as §4

[15] = test system: AG033 P. aer. APH(3′)-II AAC(6′)-I; assay: Antibacterial activity, clinical isolate AG033; format: cell-based; set-up: unit not given here
Summary of the method: as §4

[16] = test system: Engineered E. coli pH430 WT; assay: Activity, engineered E. coli pH430 WT; format: cell-based; settings: wild type
Summary of the method: (§5)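 Read-out is the minimal inhibitory concentration, obtained in broth microdilution run according to CLSI guidelines (M07-A10).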

[17] = test system: Engineered E. coli AG103 armA; assay: Activity against G1405-methylated 16S-rRNA, E. coli AG103 armA; format: cell-based
Summary of the method: as §5

[18] = test system: Engineered E. coli pH424 armA; assay: Activity against G1405-methylated 16S-rRNA, E. coli pH424 armA; format: cell-based
Summary of the method: as §5

[19] = test system: Engineered E. coli pH425 rmtB; assay: Activity against G1405-methylated 16S-rRNA, E. coli pH425 rmtB; format: cell-based
Summary of the method: as §5

[20] = test system: Engineered E. coli pH426 rmtC; assay: Activity against G1405-methylated 16S-rRNA, E. coli pH426 rmtC; format: cell-based
Summary of the method: as §5

[21] = test system: Engineered E. coli pH427 rmtF; assay: Activity against G1405-methylated 16S-rRNA, E. coli pH427 rmtF; format: cell-based
Summary of the method: as §5

[22] = test system: E. coli AG153 AAC(3)-II APH(3′)-II rmtB; assay: Activity against G1405-methylated 16S-rRNA, clinical isolate AG153; format: cell-based
Summary of the method: as §5

[23] = test system: K. pneum. AG269 AAC(3)-II AAC(6′)-I rmtB; assay: Activity against G1405-methylated 16S-rRNA, clinical isolate AG269; format: cell-based
Summary of the method: as §5

[24] = test system: Enterob. AG302 AAC(3)-II AAC(6′)-I rmtC; assay: Activity against G1405-methylated 16S-rRNA, clinical isolate AG302; format: cell-based
Summary of the method: as §5

[25] = test system: A baum. AG227 APH(3′)-I armA; assay: Activity against G1405-methylated 16S-rRNA, clinical isolate AG227; format: cell-based
Summary of the method: as §5

[26] = test system: Enterobacteriaceae, Pseudomonas, Acinetobacter, and Mycobacteria; assay: Antibacterial potency, Tables 4+5 overall; format: cell-based; settings: against Enterobacteriaceae, Mycobacteria (Tables 4+5)
Excerpt: Minimal inhibitory concentrations (MIC) have been determined by broth microdilution assays (CLSI. Methods for Dilution Antimicrobial Susceptibility Tests for Bacteria That Grow Aerobically; Approved Standard—Tenth Edition. CLSI document M07-A10. Wayne, Pa.: Clinical and Laboratory Standards Institute; 2015.).

WT clinical isolates = assay: MIC broth microdilution, WT; format: cell-based; settings: read-out: MIC WT, clinical isolates, IMM Univ. Zurich; wild type
Summary of the method: as §1

isolates carrying apmA = assay: MIC broth microdilution, apmA; format: cell-based
Summary of the method: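 MICs (μg/ml) were determined by CLSI M07-A10 broth microdilution against apmA-carrying clinical isolates from the Institute of Medical Microbiology, University of Zurich.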

ATCC19977 M. abcessus = assay: MIC reference strain ATCC19977; format: cell-based; settings: reference strain; read-out: MIC ATCC19977 M. abcessus
Summary of the method: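 Values are minimal inhibitory concentrations, obtained by serial dilution of compound in broth according to CLSI guidance for aerobes.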

N. gonorrhoeae = assay: Disk diffusion N. gonorrhoeae; format: cell-based

Row | SMILES | MIC [1] | IC50 (bacterial ribosomes) | IC50 [6] | IC50 [7] | MIC [8] | MIC [9] | MIC [10] | MIC [11] | MIC [12] | Antibacterial activity AG001 E. coli WT (AG001 E. coli WT) | Antibacterial activity AG055 E. coli WT (AG055 E. coli WT) | Antibacterial activity AG003 E. coli AAC(3)-II (AG003 E. coli AAC(3)-II) | Antibacterial activity AG173 E. coli AAC(3)-IV (AG173 E. coli AAC(3)-IV) | Antibacterial activity AG038 MRSA (AG038 MRSA) | Antibacterial activity AG039 MRSA AAC(6′)-I ANT(4′)-I [13] | Antibacterial activity AG042 MRSA AAC(6′)-I ANT(4′)-I APH(2′) [14] | Antibacterial activity AG031 P. aer. APH(3′)-II (AG031 P. aer. APH(3′)-II) | Antibacterial activity AG032 P. aer. APH(3′)-II (AG032 P. aer. APH(3′)-II) | Antibacterial activity AG033 P. aer. APH(3′)-II AAC(6′)-I [15] | Activity E. coli pH430 WT [16] | further results
1 | CNC1C(OC2OC(CO)C(N)C(O)C2O)OC2CC(N)C(OC3C(N)CC(N)C(O)C3OC3OC(CN)C(OCCN)C3O)OC2C1O [DC185, 5-O-β-[5-Amino-3-O-(2-aminoethyl)-5-deoxy-D-ribofuranosyl] apramycin] | > 32 µg/mL | 0.03 µM | 34 µM | 26 µM | 2 µg/mL | 0.5 to 1 µg/mL | 1 µg/mL | 1 to 2 µg/mL | 2 µg/mL | 2 | 2 | 1-2 | 4 | 1 | 1 | 1 | 2 | 2 | 2 | 1 | MIC [2]: 1 µg/mL (≈ 1.4 µM); MIC [3]: 1 µg/mL (≈ 1.4 µM); MIC [4]: 0.25 µg/mL (≈ 0.35 µM); MIC [5]: 2 µg/mL (≈ 2.8 µM); Antibacterial activity AG163 E. coli APH(3′)-I (AG163 E. coli APH(3′)-I): 2; Activity E. coli AG103 armA [17]: 0.5-1; Activity E. coli pH424 armA [18]: 2; Activity E. coli pH425 rmtB [19]: 2; Activity E. coli pH426 rmtC [20]: 2; Activity E. coli pH427 rmtF [21]: 2; Activity E. coli AG153 AAC(3)-II APH(3′)-II rmtB [22]: 4; Activity K. pneum. AG269 AAC(3)-II AAC(6′)-I rmtB [23]: 1; Activity Enterob. AG302 AAC(3)-II AAC(6′)-I rmtC [24]: 1; Activity A baum. AG227 APH(3′)-I armA [25]: 2; antibacterial potency [26]: increased antibacterial potency
2 | CNC1C(OC2OC(CO)C(N)C(O)C2O)OC2CC(N)C(OC3C(N)CC(N)C(O)C3O)OC2C1O (stereo not drawn) [DC161, 5-Epi-apramycin] | > 32 µg/mL | 0.05 µM | 20 µM | 17 µM | 2 µg/mL | 1 µg/mL | 2 µg/mL | 2 µg/mL | 2 µg/mL | 4 | 4 | 4-8 | 64 | 4 | 4 | 2-4 | 4 | 4 | 8 | 2 | MIC (WT clinical isolates): 2 µg/mL (≈ 3.71 µM); circumvention of the resistance mechanism apmA (isolates carrying apmA): circumvent the resistance mechanism apmA; MIC (isolates carrying apmA; apmA resistance gene): 2 µg/mL (≈ 3.71 µM); MIC (ATCC19977 M. abcessus): 0.5 µg/mL (≈ 0.927 µM); Disk diffusion 25 nmol N. gonorrhoeae (N. gonorrhoeae): 10 mm; Activity E. coli pH424 armA [18]: 2; Activity E. coli pH425 rmtB [19]: 2; Activity E. coli pH426 rmtC [20]: 2; Activity E. coli pH427 rmtF [21]: 2
